Measured values published in patent US5710011A, “Mediators to oxidoreductase enzymes” (Medisense, Inc., priority 1992, dated 1998).

Key:
[1] = target: T1, Horseradish peroxidase (HRP) (Armoracia rusticana, UniProt P00433); experiment: Mediation to horseradish peroxidase, rotating ring-disk voltammetry; format: biochemical; settings: mediator 0.5 mM, HRP 280 U, ring poised at -100 mV, disk scanned -100 to -600 mV
T1 sequence (P00433 31-338): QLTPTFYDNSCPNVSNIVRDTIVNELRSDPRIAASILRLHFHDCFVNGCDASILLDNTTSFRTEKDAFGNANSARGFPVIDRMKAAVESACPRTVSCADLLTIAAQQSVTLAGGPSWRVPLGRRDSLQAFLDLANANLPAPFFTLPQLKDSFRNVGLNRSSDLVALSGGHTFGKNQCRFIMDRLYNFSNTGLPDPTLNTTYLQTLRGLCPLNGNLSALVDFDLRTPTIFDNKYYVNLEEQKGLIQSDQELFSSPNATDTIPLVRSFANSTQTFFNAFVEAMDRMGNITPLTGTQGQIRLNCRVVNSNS
Method: (§1) The phosphate buffer solution (PBS) of 0.15 M phosphate (with 0.2 M sodium chloride as supporting electrolyte), pH 7.0, containing 0.1 M glucose was prepared using Analar reagents from Merck BDH. The solution was stored overnight at 4° C. prior to use to allow equilibration of the α- and β-anomers. Glucose oxidase (EC 1.1.3.4 from Aspergillus niger) was supplied by Sturge Enzymes. Horseradish peroxidase was obtained from Biozyme.
The ability of the β-cyclodextrin adduct of the manganese complex Compound 10 to mediate with […] (HRP) was assessed by comparing it with 1,1'-dimethylferrocene ethanolamine using rotating ring-disk voltammetry according to a literature method (Anal. Chem., 62 (1990) 2429). Experiments were carded out using a glass cell (14 ml capacity) containing a platinum counter electrode with a calomel reference electrode. A gold-gold ring-disk electrode, rotated at 4 Hz, was immersed in a phosphate-buffered saline solution of the mediator (0.5 mM) containing HRP (280 U). The catalytic ring current was then measured while poising the ring electrode at -100 mV and scanning the disk electrode from -100 to -600mV to generate hydrogen peroxide.

[2] = Cyclic voltammetry of the complexes in aqueous buffer (PBS); format: physicochemical; settings: for EOX: arene chromium tricarbonyl complexes, aqueous electrochemistry; for potential of the voltammetric wave: manganese complexes in aqueous buffer (PBS)
[3] = Cyclic voltammetry of screen-printed carbon electrodes containing the complex; format: physicochemical; settings: for oxidation wave potential: screen-printed carbon electrodes, scan rates 50 and 100 mV/s
Method: (§2) Screen-printed electrodes incorporating Compound 6 were produced from an organic carbon ink containing the chromium complex at a level of 3.5 mg/g ink. FIG. 2a comprises cyclic voltammograms of electrodes containing the chromium complex Compound 6 at 50 mV/s and 0.2 μA/cm in PBS, and FIG. 2b the catalytic wave upon addition of 100 μl glucose oxidase recorded at 20 mV/s and 0.5 μA/cm. […] From FIG. 2b, it is seen that GOD mediation occurs on applying mixtures of enzyme and glucose to the electrodes, with small catalytic currents of about 1 μA.
Further work with the dithiocarbamate complexes Compounds 10 to 12 was carried out with screen-printed carbon electrodes produced from carbon inks mixed with each of the complexes. […] Catalytic currents in the region of 4 μA were recorded in the presence of GOD and glucose. Variable but increased currents of up to 29 μA were obtained with 0.1 M glucose when the enzyme was confined in the carbon electrode with the mediator, see FIG. 9.

glucose oxidase (GOD) [4] = target: T2, glucose oxidase (GOD) (Aspergillus niger, UniProt P13006); experiment: Mediation to glucose oxidase with screen-printed carbon electrodes containing the mediator; format: biochemical
Method: as §1, §2
Further work with the dithiocarbamate complexes Compounds 10 to 12 was carried out with screen-printed carbon electrodes produced from carbon inks mixed with each of the complexes. […] Catalytic currents in the region of 4 μA were recorded in the presence of GOD and glucose. […]

glucose oxidase (GOD) [5] = target: T2, glucose oxidase (GOD); experiment: Mediation to glucose oxidase in solution (catalytic wave, enzyme titration in 0.1 M glucose/PBS); format: biochemical
[6] = cited from earlier work
[7] = Solubility / stability in aqueous buffer; settings: aqueous buffer / water
[8] = pH 7
glucose oxidase (GOD) [9] = target: T2, glucose oxidase (GOD); settings: literature value (Anal. Chem., 56 (1984) 667); cited from earlier work
[10] = complex in aqueous buffer (PBS)
[11] = 0.5 mM in PBS with added β-cd (0.5-5.0 mM)

T2 sequence (P13006 17-605): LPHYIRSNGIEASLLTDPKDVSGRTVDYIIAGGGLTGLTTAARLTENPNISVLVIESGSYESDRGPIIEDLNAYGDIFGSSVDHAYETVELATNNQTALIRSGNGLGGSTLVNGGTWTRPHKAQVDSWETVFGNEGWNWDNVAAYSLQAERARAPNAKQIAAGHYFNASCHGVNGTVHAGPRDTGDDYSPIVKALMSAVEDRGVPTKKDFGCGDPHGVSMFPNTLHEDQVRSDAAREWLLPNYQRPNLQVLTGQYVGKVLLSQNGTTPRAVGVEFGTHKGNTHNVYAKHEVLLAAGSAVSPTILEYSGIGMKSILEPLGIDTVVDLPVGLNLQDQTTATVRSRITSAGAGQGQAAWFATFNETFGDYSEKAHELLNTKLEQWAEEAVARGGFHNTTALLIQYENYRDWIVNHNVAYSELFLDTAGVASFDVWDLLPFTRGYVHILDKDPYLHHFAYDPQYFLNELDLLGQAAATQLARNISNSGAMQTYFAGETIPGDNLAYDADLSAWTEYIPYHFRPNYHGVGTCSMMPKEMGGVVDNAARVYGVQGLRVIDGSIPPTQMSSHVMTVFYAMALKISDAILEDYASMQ

## 1,1'-dimethylferrocene ethanolamine [reference compound]
[1]
  catalytic ring current, comparison of mediators: identical catalytic currents

## CN(C)c1ccccc1.[C-]#[O+].[C-]#[O+].[C-]#[O+].[Cr] [Compound 1]
[2]
  EOX: +250 mV

## OCCN(CCO)c1ccccc1.[C-]#[O+].[C-]#[O+].[C-]#[O+].[Cr] [Compound 3]
[2]
  EOX: +250 mV

## Nc1ccc(N)cc1.[C-]#[O+].[C-]#[O+].[C-]#[O+].[Cr] [Compound 4]
[2]
  EOX: +135 mV

## COc1ccc(N)c(OC)c1.[C-]#[O+].[C-]#[O+].[C-]#[O+].[Cr] [Compound 5]
[2]
  EOX: +170 mV

## Cc1c(C)c(N)c(C)c(C)c1N.[C-]#[O+].[C-]#[O+].[C-]#[O+].[Cr] [Compound 6]
[3]; screen-printed electrodes, 3.5 mg complex/g ink, PBS applied
  mid-point potential: -15 mV
[3]; screen-printed electrodes, PBS applied
  reversibility of the voltammetric wave: reversible wave
[2]
  EOX: +40 mV
[2]; [10]
  reversibility of the voltammetric wave: reversible wave
Glucose oxidase (GOD) [4]; mixtures of GOD and glucose applied to screen-printed electrodes containing the mediator
  catalytic current: about 1 μA

## Nc1cc(N)cc(N)c1.[C-]#[O+].[C-]#[O+].[C-]#[O+].[Cr] [Compound 7]
[2]
  EOX: +50 mV

## Cc1cc[cH-]c1.[C-]#[O+].[C-]#[O+].[C-]#[O+].[Mn] [Compound 8, (methylcyclopentadienyl)manganese tricarbonyl]
Glucose oxidase (GOD) [5]; 0 to 25 μl GOD titrated into mediator in 0.1 M glucose/PBS, from icat versus [GOD]^1/2
  second order rate coefficient for the oxidation of reduced GOD: 210000 M⁻¹ s⁻¹

## [C-]#[O+].[C-]#[O+].[C-]#[O+].[Mn].[c-]1[c-][c-][cH-][c-]1 [Cyclopentadienyl manganese tricarbonyl]
[6]; in acetonitrile, relative to ferrocene
  oxidation potential, more positive than ferrocene: ~1.2 V

## [C-]#[O+].[C-]#[O+].[C-]#[O+].[Cr].c1ccccc1 [benzene chromium tricarbonyl]
[6]; in dichloromethane
  half wave potential: +710 mV vs SCE
[7]
  aqueous solubility (in words): negligible solubility in buffer

## [MeCpMn(NO)(CN)2 ]Na [Compound 13]
[2]; [10]
  reversibility of the voltammetric wave: reversible wave
[2]
  potential of the voltammetric wave: +440 mV

## [MeCpMn(NO)(CO)2 ]PF6 [Compound 9]
[2]; aqueous buffer, irreversibly oxidized
  oxidation potential of the species formed by decomposition: +230 mV

## [MeCpMn(NO)(S2 CNEt2)] [Compound 11]
[3]
  oxidation wave potential: +300 mV

## [MeCpMn(NO)(S2 CNMe2)] [Compound 10]
[3]
  oxidation wave potential: +240 mV
Glucose oxidase (GOD) [4]; 0.1 M glucose, enzyme confined in the carbon electrode with the mediator
  catalytic current: up to 29 μA

## [MeCpMn(NO)(S2 CNMe2)]β-cyclodextrin
[8]
  solubility in PBS: at least 0.5 mM
[1]
  catalytic ring current, comparison of mediators: identical catalytic currents
Glucose oxidase (GOD) [5]; upon addition of GOD and glucose, 0.1 M glucose/PBS
  icat (catalytic wave): 9.7 μA
[2]; 0.1 M glucose/PBS
  ΔEp: 70 mV
[2]; [10]
  reversibility of the voltammetric wave: reversible wave
[2]
  potential of the voltammetric wave: +255 mV

## [MeCpMn(NO)(bipy)]PF6 [Compound 14]
[2]; [10]
  reversibility of the voltammetric wave: irreversible electrochemistry
[2]
  potential of the voltammetric wave: about +600 mV

## [MeCpMn(NO)(phen)]PF6 [Compound 15]
[2]; [10]
  reversibility of the voltammetric wave: irreversible electrochemistry
[2]
  potential of the voltammetric wave: about +600 mV

## [MeCpMn(NO){(SCCN)2 }][NEt4 ] [Compound 16]
[2]; [11]
  E1/2: +5 mV
  ΔEp: 65 mV
[2]; 0.5 mM in buffer with added β-cd (0.5-5.0 mM)
  reversibility of the voltammetric wave: reversible wave
[2]; 0.6 mM in PBS, 50 mV/s
  Eox: -25 mV

## ferrocene monocarboxylic acid
Glucose oxidase (GOD) [9]
  second order rate constant for the oxidation of reduced GOD: 200000 M⁻¹ s⁻¹
